Assay results from ChEMBL document CHEMBL3272304, “Syntheses of heterocylic fused thiazole acetic acids. 2” (1976).
Activity calls are given as the source filed them. The calls are words filed in the database; no cut-off is given here.

Legend:
Type in all cases: functional
[1] = system: Mycobacterium tuberculosis; assay: Antitubercular activity against Mycobacterium tuberculosis H37Rv
Mus musculus = assay: Antidepressant activity in po dosed mouse assessed as antagonism of reserpine-induced ptosis
[2] = system: Lewis lung carcinoma cell line; assay: Antimetastatic activity against mouse LLC cells allografted in BDF1 mouse assessed as increase in host survival
[3] = system: Lewis lung carcinoma cell line; assay: Antimetastatic activity against mouse LLC cells allografted in BDF1 mouse assessed as increase in host survival at 150 mg/kg relative to control

| Structure (SMILES) | Activity [1] | ED50 (Mus musculus) | further results |
| --- | --- | --- | --- |
| NNC(=O)c1ccncc1 [ISONIAZID] | 0.005 µg/mL | – | – |
| COC(=O)CC(Sc1nc2ccccc2[nH]1)C(=O)c1ccc(Cl)cc1 (configuration not stated) | 1 µg/mL | – | – |
| CCOC(=O)CC1Sc2nc(=O)cc(NC(C)=O)n2C1(O)c1ccc(Cl)cc1 (configuration not stated) | 1 µg/mL | – | – |
| Br.COC(=O)CC1Sc2nc3ccccc3n2C1(O)c1ccccc1 (configuration not stated) | 5 µg/mL | – | – |
| Br.CCOC(=O)CC1SC2=NCCN2C1(O)c1ccc(Cl)cc1 (configuration not stated) | 5 µg/mL | – | – |
| Br.O=C(O)CC1SC2=NCCN2C1(O)c1ccc(Cl)cc1 (configuration not stated) | – | 0.22 mg/kg | – |
| O=C(O)Cc1sc2nc3ccccc3n2c1-c1ccc(Cl)cc1 | – | – | Activity [2]: Active |
| Br.CCOC(=O)CC1SC2=NCCN2C1(O)c1ccccc1 (configuration not stated) | 5 µg/mL | 0.27 mg/kg | – |
| Br.COC(=O)CC1SC2=NCCN2C1(O)c1ccc(Cl)cc1 (configuration not stated) | 1 µg/mL | 0.5 mg/kg | – |
| CCOC(=O)CC(Sc1nc2ccccc2[nH]1)C(=O)c1ccc(Cl)cc1 (configuration not stated) | 1 µg/mL | – | – |
| CCOC(=O)CC1Sc2nc3ccccc3n2C1(O)c1ccc(Cl)cc1 (configuration not stated) | 1 µg/mL | – | Activity [2]: Active |
| O=C(O)CC1Sc2nc3ccccc3n2C1(O)c1ccc(Cl)cc1 (configuration not stated) | – | – | T/C [3]: 37% |
| COC(=O)CC1Sc2nc3ccccc3n2C1(O)c1ccc(Cl)cc1 (configuration not stated) | 2 µg/mL | – | Activity [2]: Active |
| Br.O=C(O)CC1SC2=NCCCN2C1(O)c1ccc(Cl)cc1 (configuration not stated) | – | 0.25 mg/kg | Activity [2]: inactive |
| Br.COC(=O)CC1SC2=NCCN2C1(O)c1ccccc1 (configuration not stated) | 5 µg/mL | 0.5 mg/kg | – |
| Br.CCOC(=O)CC1SC2=NCCCN2C1(O)c1ccc(Cl)cc1 (configuration not stated) | – | 0.118 mg/kg | – |
